Test results published in US20240208972A1, “LRRK2 INHIBITORS AND USES THEREOF” (NEURON23, INC., priority 2022, published 2024).

Legend:
[1] = system: Caco-2 cells; assay: Caco-2 bidirectional permeability; assay type: in vitro ADME; conditions: for Caco-2 A2B (10^−6 cm/s): A to B; for Caco-2 A2B (10^−6 cm/s) / Caco-2 B2A (10^−6 cm/s): HBSS pH 7.4, 2 hours; for Caco-2 B2A (10^−6 cm/s): B to A; for Caco-2 ER: Efflux Ratio=Papp (BA)/Papp (AB)
Experimental: The compounds disclosed herein were tested in vitro on CaCo2 cell penetration according to the following procedures.
Test compounds were prepared in dimethyl sulfoxide (DMSO).
Caco-2 cells purchased from ATCC were seeded onto […] (PET) in 96-well Corning Insert plates at 1×10^5 cells/cm^2. The media were refreshed every 4 to 5 days until the 21st to 28th day for confluent cell monolayer formation.
Experiments were run in duplicate using a HBSS transport buffer containing 10 mM HEPES at pH 7.4. The test article TEST COMPOUND was tested bi-directionally at […] concentrations, the control compound digoxin was tested bi-directionally at 10 μM, and nadolol and metoprolol were tested at 2.0 μM in the A to B direction. Final DMSO concentrations were adjusted to less than 1%. The plates were incubated for 2 hours in a CO2 incubator at 37±1° C. with 5% CO2 at saturated humidity without shaking. Following incubation, samples were mixed with acetonitrile containing internal standard and centrifuged at 3200×g for 10 minutes. Then 200 μL of supernatant was taken from all samples. For TEST COMPOUND and digoxin, the supernatant was diluted with 200 μL of ultra-pure water and for nadolol and metoprolol, the supernatant was diluted with 600 μL of ultra-pure water. All samples were analyzed by LC-MS/MS. Concentrations of TEST COMPOUND and control compounds were determined in starting solutions, donor well solutions, and receiver well solutions using peak area ratios (PAR) of analyte to internal standard. After the transport assay, a lucifer yellow rejection assay was run to determine the Caco-2 cell monolayer integrity.
The apparent permeability (Papp), the % recovery and the efflux ratio were calculated as follows: • 1. Papp=(dCr/dt)×Vr/(A×C0) • 2. % Recovery=100×[(Vr×Cr)+(Vd×Cd)]/(Vd×C0) • 3. Efflux Ratio=Papp (BA)/Papp (AB) • Where: • dCr/dt is the slope of the cumulative concentration in the receiver compartment versus time (mM/s). • Vr and Vd is the volume in the receiver and donor compartments (0.075 mL on the apical side, 0.25 mL on the basolateral side), respectively. • A is the surface area of the cell monolayer (0.0804 cm^2). • C0 is the measured donor concentrations (μM) at the beginning of the experiment. • Cd and Cr are the final measured concentrations in the donor and receiver compartments, respectively.
The cell monolayer tight junction integrity assay was conducted after completion of the transport assay by adding Lucifer Yellow (LY) to the apical wells at 100 μM and incubating the cells for 30 minutes. Following incubation, tight junction integrity was assessed from LY concentrations in the basolateral compartment (receiver well) and the apical compartment (donor well) using fluorescence detection as follows: […]

[2] = target: T1, wt human LRRK2, catalytic site (Homo sapiens, UniProt Q5S007); assay: TR-FRET LanthaScreen Tb Kinase Activity Assay, LRRK2 kinase inhibition; assay type: biochemical; conditions: 2 nM wt human LRRK2, 400 nM peptide, 38 μM ATP
T1 construct: wt human LRRK2, catalytic site, catalytic site (ThermoFisher/USA); purchased ThermoFisher
T1 sequence (Q5S007 1879-2138 limits assumed): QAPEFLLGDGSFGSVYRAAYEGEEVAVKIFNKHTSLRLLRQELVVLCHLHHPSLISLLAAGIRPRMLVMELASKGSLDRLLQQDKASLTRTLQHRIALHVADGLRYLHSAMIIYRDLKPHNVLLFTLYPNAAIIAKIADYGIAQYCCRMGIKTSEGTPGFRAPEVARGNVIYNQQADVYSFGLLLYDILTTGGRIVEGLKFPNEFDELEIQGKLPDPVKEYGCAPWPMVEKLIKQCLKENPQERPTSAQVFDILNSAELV
Experimental: The compounds disclosed herein were tested for their inhibitory effect on LRRK2 kinase according to the following procedures.
The protocol for basic TR-FRET LanthaScreen Tb Kinase Activity Assay inhibitor studies is as follows. LanthaScreen Kinase Activity Assays (ThermoFisher/USA) to evaluate inhibitors were performed by addition of 100 nL of test compound in the corresponding DMSO dilutions/5 L of kinase/fluorescein-ERM(LRRKtide) peptide mixture, Compound & kinase were pre-incubated for 15 minutes, then 5 μl of ATP into 384 well small volume plates. After incubation for 120 minutes at room temperature, the detection reagents containing Tb-anti-pLRRKtide antibody were added to monitor the phosphrylation level of peptide. Then, after 60 min minutes incubation at room temperature plates were read in Envision. Data analysis of emission ratios was according to the LanthaScreen Tb Kinase Activity Assay protocol.
Kinase and assay components were adjusted to final concentrations according to the kit protocol. For LRRK2: 2 nM wt human LRRK2, catalytic site, catalytic site (ThermoFisher/USA), 400 nM peptide, 38 μM ATP in 1× Kinase Buffer A.
Basic protocol for TR-FRET LanthaScreen Tb Kinase Activity Assay inhibitor studies involved two steps: Enzymatic step: Addition of 100 nl of test compound in corresponding DMSO dilutions, 5 μl of kinase/substrate mixture, 5 μl of ATP into 384 well small volume plates. Incubation for 120 minutes at room temperature.
Detection step: Addition of 10 μl EDTA & antibody, read plate after 60 minutes. Data analysis of emission ratios according to KinEASE assay protocol.
Kinase and assay components were adjusted to final concentrations according to the kit protocol.

[3] = Human liver microsomal clearance (hLM Cl); assay type: in vitro ADME; conditions: cells marked *
[4] = Human hepatocyte stability, in vitro h-Hept CLpredict; assay type: in vitro ADME; conditions: cryopreserved hepatocytes, predicted hepatic clearance, cells without asterisk, read-out: hHep Cl
Experimental: The compounds disclosed herein were tested in vitro on human hepatocyte for in vitro h-Hept CLpredict according to the following procedures. • 1. Compound sock solutions were prepared by dissolving test compound and positive control in dimethyl sulfoxide (DMSO) at a concentration of 10 mM. Stock solutions were then diluted to 100 μM solutions by combining 198 μL of 50% acetonitrile/50% water with 2 μL of the 10 mM stock stock in separate conical tubes. • 2. Cryopreserved hepatocytes were prepared as follows: Incubation medium (William's E Medium supplemented with GlutaMAX) and hepatocyte thawing medium were placed in a 37° C. water bath and allowed to warm for at least 15 minutes prior to use. Cryopreserved hepatocytes were removed from storage, ensuring that vials remained at cryogenic temperatures until thawed. Cells were thawed by placing the vials in a 37° C. water bath and gently shaking the vials for 2 minutes. After thawing was completed, vials were sprayed with 70% ethanol and transferred to a biosafety cabinet. Hepatocytes were transferred into 50 mL conical tube containing thawing medium using wide-bore pipette tips. Tubes were placed into a centrifuge and spun at 100 g for 10 minutes. Then thawing medium was aspirated and hepatocytes were resuspended in enough incubation medium to yield−1.5×10^6 cells/mL. Cells were counted using acridine orange and propidium iodide (AO/PI) staining, and the viable cell density was determined. Cells were diluted with incubation medium to a working cell density of 0.5×10^6 viable cells/mL. • 3. To determine hepatocyte stability, 198 μL of hepatocytes were transferred into each well of a 96-well non-coated plate. Plates were placed in an incubator to allow the hepatocytes to warm for 10 minutes. • 4. The reaction was started by transferring 2 μL of the 100 μM test compound or positive control solution into respective wells of the 96-well non-coated plates. Plates were returned to the incubator until 25 μL aliquots of well contents were sampled at time points of 0, 15, 30, 60, 90 and 120 minutes. The aliquots were then mixed with 6 volumes (150 μL) of acetonitrile containing internal standard, IS (100 nM alprazolam, 200 nM caffeine and 100 nM tolbutamide) to terminate the reaction and vortexed for 5 minutes. After centrifuging the samples for 45 minutes at 3,220 g, aliquots of 100 μL of the supernatant were taken and diluted with 100 μL of ultra-pure water. The mixture was used for LC/MS/MS analysis. All incubations were performed in duplicate.
All calculations were carried out using Microsoft Excel. Peak area ratios (PAR) were determined from extracted ion chromatograms. The in vitro half-life (t1/2) of parent compound was determined by regression analysis of the percent parent disappearance vs. time curve as follows:
The in vitro half-life (in vitro t1/2) was determined from the slope value:
Conversion of the in vitro t1/2 (in minutes) into the in vitro intrinsic clearance (in vitro CLint, in μL/min/1×10^6 cells) was done using the following equation (mean of duplicate determinations): […]
The scaled-up intrinsic clearance (CLint, mL/min/kg), predicted hepatic clearance (CLH, mL/min/kg) and hepatic extraction ratio (ER) were calculated using the following equations:
CLint=(0.693/t1/2)*(1/(hepatocyte concentration (0.5*10^6 cells/mL))*scaling factors (Table (A)
• CLHept-predict=(QH*Scaled-up CLint*fub)/(QH+Scaled-up CLint*fub) • ER=CLH/QH • Where: • V=incubation volume (0.2 mL) • N=number of hepatocytes per well (0.1*10^6 cells) • QH=hepatic blood flow (mL/min/kg) (Table (A)
• fub=fraction of unbound drug in plasma, assumed to be 1 • Values used for calculation of the predicted hepatic clearance parameters data processing rules are outlined in the following tables (A) (B)

| SMILES | Caco-2 A2B (10^−6 cm/s) [1] | Caco-2 B2A (10^−6 cm/s) [1] | Caco-2 ER [1] | IC50 [2] | CLhep predicted at 1 µM [4] | hLM Cl (mL/min/kg) [3] |
| --- | --- | --- | --- | --- | --- | --- |
| Cc1n[nH]c2c1N=C(c1c(F)cccc1F)Nc1c-2cc(N2CCC[C@@]3(CCOC3)C2)nc1C (single isomer, unassigned) [Example 50] | H (H (High permeability)”: A2B (B2A)>5) | H (H (High permeability)”: A2B (B2A)>5) | N (N (Non-substrate)”: ER<2.5) | < 2 nM |  | I* (I (Intermediate C1)”: 6.3 mL/min/kg≤Hep Cl≤14.7 mL/min/kg) |
| Cc1n[nH]c2c1N=C(c1c(F)cccc1F)Nc1c-2cc(N2CCO[C@@H](COC(F)(F)F)C2)nc1C [Example 48, (R)-4-(5-(2,6-difluorophenyl)-3,7-dimethyl-1,6-dihydropyrazolo[4,3-d]pyrido[4,3-f][1,3]diazepin-9-yl)-2-((trifluoromethoxy)methyl)morpholine] | M (M (Moderate permeability)”: 1≤A2B (B2A)≤5) | M (M (Moderate permeability)”: 1≤A2B (B2A)≤5) | N (N (Non-substrate)”: ER<2.5) | < 2 nM |  | I* (I (Intermediate C1)”: 6.3 mL/min/kg≤Hep Cl≤14.7 mL/min/kg) |
| Cc1n[nH]c2c1N=C(c1c(F)cccc1F)Nc1c-2cc(N2CC3CC(C2)O3)nc1C [Example 41, 3-(5-(2,6-difluorophenyl)-3,7-dimethyl-1,6-dihydropyrazolo[4,3-d]pyrido[4,3-f][1,3]diazepin-9-yl)-6-oxa-3-azabicyclo[3.1.1]heptane] | H (H (High permeability)”: A2B (B2A)>5) | H (H (High permeability)”: A2B (B2A)>5) | N (N (Non-substrate)”: ER<2.5) | < 2 nM |  | I* (I (Intermediate C1)”: 6.3 mL/min/kg≤Hep Cl≤14.7 mL/min/kg) |
| Cc1n[nH]c2c1N=C(c1c(F)cccc1F)Nc1cnc(NCc3ccc(F)cc3F)cc1-2 [Example 16, N-(2,4-difluorobenzyl)-5-(2,6-difluorophenyl)-3-methyl-1,6-dihydropyrazolo[4,3-d]pyrido[4,3-f][1,3]diazepin-9-amine] | H (H (High permeability)”: A2B (B2A)>5) | H (H (High permeability)”: A2B (B2A)>5) | N (N (Non-substrate)”: ER<2.5) | < 2 nM | 6.3 to 14.7 mL/min/kg |  |
| Cc1n[nH]c2c1N=C(c1c(F)cccc1F)Nc1c-2cc(N2CCOCC2)nc1C(F)F [Example 44, 4-(7-(difluoromethyl)-5-(2,6-difluorophenyl)-3-methyl-1,6-dihydropyrazolo[4,3-d]pyrido[4,3-f][1,3]diazepin-9-yl)morpholine] | H (H (High permeability)”: A2B (B2A)>5) | H (H (High permeability)”: A2B (B2A)>5) | N (N (Non-substrate)”: ER<2.5) | < 2 nM | 6.3 to 14.7 mL/min/kg |  |

Continued, in another order:

| Caco-2 A2B (10^−6 cm/s) [1] | Caco-2 B2A (10^−6 cm/s) [1] | Caco-2 ER [1] | IC50 [2] | CLhep predicted at 1 µM [4] | SMILES | hLM Cl (mL/min/kg) [3] |
| --- | --- | --- | --- | --- | --- | --- |
| H (H (High permeability)”: A2B (B2A)>5) | H (H (High permeability)”: A2B (B2A)>5) | N (N (Non-substrate)”: ER<2.5) | < 2 nM |  | Cc1n[nH]c2c1N=C(c1c(F)cccc1F)Nc1c-2cc(N2CCN(C)[C@H](C(F)(F)F)C2)nc1C (single isomer, unassigned) [Example 36] | I* (I (Intermediate C1)”: 6.3 mL/min/kg≤Hep Cl≤14.7 mL/min/kg) |
| H (H (High permeability)”: A2B (B2A)>5) | H (H (High permeability)”: A2B (B2A)>5) | N (N (Non-substrate)”: ER<2.5) | < 2 nM |  | Cc1n[nH]c2c1N=C(c1c(F)cccc1F)Nc1c-2cc(C2CCOCC2)nc1C [Example 38, 8-(2,6-difluorophenyl)-5,11-dimethyl-13-tetrahydropyran-4-yl-3,4,7,9,12-pentazatricyclo[8.4.0.02,6]tetradeca-1(10),2(6),4,7,11,13-hexaene] | I* (I (Intermediate C1)”: 6.3 mL/min/kg≤Hep Cl≤14.7 mL/min/kg) |
